Measurements published in ChEMBL document CHEMBL1158740, “Oxylipins arabidopsides C and D from Arabidopsis thaliana” (2005).

These compounds were tested on Lepidium sativum (assay: Inhibition of Lepidium sativum cress root growth at 5X10'-5 mol/L after 40 hrs).
Format: functional
Work on CC/C=C\CC1C(=O)C=CC1CCCCCCCC(=O)O (cis isomer) yielded an inhibition at 50 µM of 50%.
Work on CC/C=C\C[C@H]1C(=O)C=C[C@H]1CCCCCCCC(=O)OC[C@H](CO[C@@H]1O[C@H](CO)[C@H](O)[C@H](O)[C@H]1O)OC(=O)CCCCC[C@@H]1C=CC(=O)[C@@H]1C/C=C\CC [ARABIDOPSIDE A] yielded an inhibition at 50 µM of 30%.
CC/C=C\C[C@H]1C(=O)C=C[C@H]1CCCCCCCC(=O)OC[C@H](CO[C@@H]1O[C@H](CO)[C@H](O)[C@H](O)[C@H]1O)OC(=O)CCCCCCC[C@@H]1C=CC(=O)[C@@H]1C/C=C\CC [ARABIDOPSIDE B] gave an inhibition at 50 µM of 30%.
CC/C=C\CC1C(=O)C=CC1CCCCCCCC(=O)OCC(CO[C@@H]1O[C@H](CO[C@H]2O[C@H](CO)[C@H](O)[C@H](O)[C@H]2O)[C@H](O)[C@H](O)[C@H]1O)OC(=O)CCCCCCCC1C=CC(=O)C1C/C=C\CC (stereo not given in full) [Arabidopside D] gave an inhibition at 50 µM of 30%.
For CC/C=C\C[C@H]1C(=O)CC[C@@H]1CC(=O)O [JASMONIC ACID], the inhibition at 50 µM was 50%.
